Patent US6849757B2, “Antiangiogenic drug to treat cancer, arthritis and retinopathy” (Abbott Laboratories, priority 1998, dated 2005)

Each molecule was assayed on Human Microvascular Endothelial Cells (HMVEC) (assay: Endothelial cell migration assay (modified Boyden chamber, bFGF-stimulated)). Details: HMVEC migration toward bFGF, 4 hours at 37° C., percent inhibition of migration compared to a positive control.
Format: cell-based
Protocol: Endothelial Cell Migration Assay
The endothelial cell migration assay was performed essentially as described by Polverini, P. J. et al., Methods Enzymol, 198: 440-450 (1991). Briefly, Human Microvascular Endothelial Cells (HMVEC) were starved overnight in DMEM containing 0.1% bovine serum albumin (BSA). Cells were then harvested with trypsin and resuspended in DMEM with 0.1% BSA at a concentration of 1.5×10^6 cells/mL. Cells were added to the bottom of a 48-well modified Boyden chamber (Nucleopore Corporation, Cabin John, Md.). The chamber was assembled and inverted, and cells were allowed to attach for 2 hours at 37° C. to polycarbonate chemotaxis membranes (5 μm pore size) that had been soaked in 0.1% gelatin overnight and dried. The chamber was then reinverted and basic fibroblast growth factor (bFGF) and test substances were added to the wells of the upper chamber (to a total volume of 50 μL); the apparatus was then incubated for 4 hours at 37° C. Membranes were recovered, fixed and stained (DiffQuick, Fisher Scientific, Pittsburgh, Pa.) and the number of cells that had migrated to the upper chamber per 10 high power fields were counted. Background migration to DMEM+0.1% BSA was subtracted and the data reported as the number of cells migrated per 10 high power fields (400×) or when results from multiple experiments were combined, as the percent inhibition of migration compared to a positive control.

Molecule	% inhibition at 200 nM test compound [%]
COC(=O)c1ccc(NC(=O)[C@H](CCCCNC(=O)OCc2ccccc2)NC(C)=O)cc1-c1cccc(OCc2ccccc2)c1 [Example 12]	29
CC(=O)NC(CCCCN)C(=O)Nc1ccc(C(=O)N[C@@H](CC(N)=O)C(=O)O)c(-c2ccccc2)c1 (stereo partly shown) [Example 17]	>95
CC(C)(C)OC(=O)N[C@@H](CCCCN)C(=O)Nc1ccc(C(=O)O)c(-c2cccc(O)c2)c1 [Example 31, 5-(((2S)-6-amino-1-(tert-butoxycarbonyl)aminohexanoyl)amino)-3′-hydroxy(1,1′-biphenyl)-2-carboxylic Acid]	>95
CC(=O)N[C@@H](CCCCN)C(=O)Nc1ccc(C(=O)O)c(-c2cccc(O)c2)c1 [Example 15, (S)-4-[[2-(acetylamino)-6-amino-1-oxohexyl)amino]-2-(3-hydroxphenyl)benzoic acid]	64
(S)-N-[4-[[2-(acetylamino)-6-amino-1-oxohexyl]amino]benzoyl]-L-α-asparagine [Example 18]	90

Same assay, conditions: Homo sapiens; 200 nM test compound; HMVEC migration toward bFGF, 4 hours at 37° C.; percent inhibition of migration compared to a positive control

Molecule	inhibition at 0.2 µM [%]
NC(CCCCNC(=O)OCc1ccccc1)C(=O)Nc1ccc(CC(=O)N[C@@H](CC(=O)O)C(=O)O)cc1 (stereo partly drawn) [Example 20, (S)-N-[[4-[[2-amino-6-[[(phenylmethoxy)carbonyl]amino]-1-oxohexyl]amino]phenyl]acetyl]-L-aspartic Acid]	34
COC(=O)c1ccc(NC(=O)[C@@H](CCCCN)NC(=O)OC(C)(C)C)cc1-c1ccccc1O [Example 10, (R)-methyl 4-[[6-amino-2-[[(1,1-dimethylethoxy)carbonyl]amino]-1-oxohexyl]amino]-2-(2-hydroxyphenyl)benzoate]	80
